Measured values as given in US20180256538A1, “METHOD FOR IMPROVING MITOPHAGY IN SUBJECTS” (Amazentis SA, priority 2017, published 2018).
Entries after “also recorded” stand apart in the source; their conditions may differ.

Assays:
[1] = Steady state plasma levels of total Urolithin A (parent + glucuronide and sulfate) over 28 days of dosing; assay type: in vivo, human; conditions: 500 mg/day oral for 28 days, total Urolithin A in plasma
Procedure: A double-blind, randomized, placebo controlled clinical trial was conducted in healthy elderly to establish the steady state levels of Urolithin A in plasma. Elderly subjects (61-82 years) (n=9), participated in each group of dosing. The subjects met all the inclusion and exclusion criteria of the study and signed informed consent. The subjects were overnight fasted and the plasma was collected in the morning before breakfast to assess steady state levels. Subjects were given a dose of Urolithin or placebo each morning for the 28 day trial, The urolithin A was given as softgel capsules containing 250 mg of Urolithin A in each capsule. Plasma samples were collected for assessment of Urolithin A steady state concentrations in the 4-week Urolithin A study at the following time points (Day 0, Day 7, Day 14, Day 28, Day 29, Day 31, and Day 32) were measured On day 28 the subjects were admitted to a Phase I clinical trial unit and the kinetics of Urolithin A absorption, and elimination following multiple 4-week dosing were followed until 96 hours following the last dosing on Day 28. Plasma was collected at the following time-points post last dosing with Urolithin A on Day 28: pre-dose, 1 hr, 2 hr, 4 hr, 6 hr, 8 hr, 12 hr, 24 hr, 72 hr and 96 hr. […] The exact time of sample collection was recorded on the eCRF (electronic case report from). […]

[2] = system: myostatin/follistatin ratio; test: ELISA of plasma muscle function markers, day 28 vs day -1; assay type: in vivo, human; conditions: 500 mg/day for 28 days, day 28 vs day -1, compared with placebo
Procedure: Blood handling procedures: at each time point indicated in the table, a 6 mL blood sample was drawn into K2-EDTA coated tube. The blood samples were gently inverted a few times for complete mixing with the anticoagulant. The exact time of sample collection was recorded on the eCRF. Within 30 minutes following blood collection, each blood sample was centrifuged at 1500 g for 10 minutes at 4° C. 30 minutes after the centrifugation, the top layer of human plasma was transferred into 2 pre-labelled polypropylene tubes, containing approximately 1500 μL of plasma. Blood cells were not transferred. All sample tubes were clearly and appropriately labelled. Tubes were capped immediately from each time point and the plasma was be frozen in an upright position at approximately −80° C. for storage. Measurement of markers of muscle function: Markers of muscle function, including myostatin and follistatin, were measured using an ELISA based method. Every sample was analysed in technical duplicates together with a standard curve made with each isolated analyte. The amount of each marker was expressed as an absolute concentration in plasma (pg to μg/ml of plasma, depending on the analyte). Analysis of the levels of muscle biomarkers myostatin and follistatin, which are found in plasma of human subjects, was carried out using ELISA.

[3] = system: plasma acylcarnitines and other metabolites; test: Plasma metabolomics (LC/MS/MS), day 28 vs day -1; assay type: in vivo, human; conditions: 500 mg/day for 28 days
Procedure: Blood handling procedures: at each time point indicated in the table, a 6 mL blood sample was drawn into K2-EDTA coated tube. The blood samples were gently inverted a few times for complete mixing with the anticoagulant. The exact time of sample collection was recorded on the eCRF. Within 30 minutes following blood collection, each blood sample was centrifuged at 1500 g for 10 minutes at 4° C. 30 minutes after the centrifugation, the top layer of human plasma was transferred into 2 pre-labelled polypropylene tubes, containing approximately 1500 μL of plasma. Blood cells were not transferred. All sample tubes were clearly and appropriately labelled. Tubes were capped immediately from each time point and the plasma was be frozen in an upright position at approximately −80° C. for storage. Measurement of metabolites: Samples were extracted and split into equal parts for analysis on the LC/MS/MS and Polar LC platforms. Proprietary software was used to match ions to an in-house library of standards for metabolite identification and for metabolite quantitation by peak area integration. A total of 781 metabolites were quantified. Metabolomics is the study of known measurable metabolites in a sample. […] The technique made use of HPLC-MS-MS analysis of plasma samples of subjects administered either placebo or urolithin A to characterise metabolites. 781 plasma metabolites which cover all of the biochemical processes of the body were investigated. […] The grey line in FIG. 8 corresponds to a fold change of 1, i.e. absence of effect. *P<0.05 correspond to a significant effect from D-1 (pre-dose) to D28, calculated after a repeated measures ANOVA. N=9 per group. Values represent the arithmetic mean of the fold changes.

[4] = system: mitochondrial gene sets in vastus lateralis muscle; test: Microarray / Gene Set Enrichment Analysis of gene expression in skeletal muscle biopsies after 28 days dosing; assay type: in vivo, human; conditions: 500 mg/day for 28 days vs placebo group
Procedure: Muscle biopsies were collected before the meal from the vastus lateralis muscle of the right leg in order to perform ex vivo measurements.
Muscle biopsies were collected on Day −1 and Day 28 at pre-dose under fasted state using the Bergstrom biopsy needle technique. The minimal amount of each muscle tissue sample was approximately […]. One third of the tissue was used for gene expression (≈50 mg), and was further divided into two equal portions: one portion for RNA analysis (≈25 mg) and one portion for DNA analysis (≈25 mg), both in a Safe-lock Tubes 2.0 ml, Eppendorf (part no. 0030.120.094). Muscle tissue was snap frozen using liquid nitrogen immediately after collection and further, long term storage will be in a −80° C. freezer. The mRNA was analysed by qPCR. Quantification of mtDNA over nuclear DNA provided another measure of mitochondrial abundance. The shipment was done in dry ice by specialized carrier. Temperatures were monitored using data logger during all transport.
Gene expression on available remaining muscle tissues samples was performed by microarrays.
Microarray analysis was carried out on skeletal muscle biopsies of human subjects administered urolithin A or placebo daily for 28 days. Approximately 30,000 gene transcripts were quantified by microarray in muscle biopsies and compared (day 28 vs. day −1). Gene Set Enrichment Analysis was conducted on 6166 gene sets. […]

clinical [5] = conditions: human, in vivo, po
Procedure: Part B: The study was a double-blinded, randomized, multiple ascending dose study in 36 healthy elderly male and female volunteers. Each subject was randomised to receive study product or placebo for 28 days.
Part B: Repeated oral dose administration from day 1 to day 28 according to the randomization. The administration took place around 8:00 am with around 200 mL tap water, in a sitting position, and under fasting conditions.
After multiple dosing: Cmax, tmax, AUC0-24 h, t1/2 From the plasma concentration-time data, the following pharmacokinetic parameters will be determined, as data permit using non-compartmental methods: maximum observed plasma concentration (Cmax(ng/mL), time at which maximum observed plasma concentration (tmax) (h), area under the plasma concentration-time curve AUC(0-24 h) (ng/mL*h) and AUC0-∞) (ng/mL*h), and apparent terminal phase half-life (t1/2) (h).
(§1) Blood sampling was performed for urolithin A concentration measurements at the exact timepoints with an authorised time window described in the table below:
(§2) At each time point indicated in the table, a 6 mL blood sample was drawn into K2-EDTA coated tube. The blood samples were gently inverted a few times for complete mixing with the anticoagulant. The exact time of sample collection was recorded on the eCRF. Within 30 minutes following blood collection, each blood sample was centrifuged at 1500 g for 10 minutes at 4° C.
(§3) From the plasma concentration-time data, the following pharmacokinetic parameters were determined, as data permit using non-compartmental methods: maximum observed plasma concentration (Cmax), time at which maximum observed plasma concentration (tmax), area under the plasma concentration-time curve AUC(0-24 h) and AUC(0-∞), and apparent terminal phase half-life (t1/2).

clinical [6] = conditions: human, in vivo, po; for AUC(0-t) / Cmax: both sexes
Procedure: Part A: The study was a double-blind, randomized, single ascending doses, study in 24 healthy elderly male and female volunteers. Each subject was randomized for two subsequent doses in three cohorts.
Part A: Single oral dose administration on D1 of each period according to the randomisation. The administration took place around 8:00 am with around 200 mL tap water, in sitting position, and under fasting conditions.
After single dosing: Cmax, tmax, AUC0-t, AUC0-∞, t1/2
as §1, §2, §3
FIG. 1 summarises certain plasma pharmacokinetic parameters of urolithin A following single dose oral administration at 250 mg, 500 mg, and 2000 mg urolithin A dosages.

- steady state levels after end of the 4-week administration (Day 31 and Day 32) [1]: gradually declined
- AUC (clinical [5]; both sexes, 500 mg): 10.7 ng·h/mL
- Cmax (clinical [5]; both sexes, 500 mg): 1.25 ng/mL
- pharmacokinetic profile over the 28 day period (plasma concentrations 24 h after previous dose, days 7, 14, 28, 29) (clinical [5]): stable
- AUC(0-t) (clinical [6]; 500 mg): 13.3 ng·h/mL
- Cmax (clinical [6]; 500 mg): 1.24 ng/mL
- AUC(0-t) (clinical [6]; 2000 mg): 12.4 ng·h/mL
- Cmax (clinical [6]; 2000 mg): 1.04 ng/mL
SMILES: O=c1oc2cc(O)ccc2c2ccc(O)cc12 [Urolithin A]
- change in plasma myostatin/follistatin ratio [2]: significantly lower; also recorded: significant decrease
- plasma carnitine levels [3]: did not change
- change in plasma acylcarnitines, short chain up to long chain (fold change) ([3]; day -1 to day 28, N=9): overall decrease; also recorded: significant impact
- change in plasma pyruvate, lactate, acetoacetate, 3-hydroxyoctanoate and glucose (fold change) ([3]; day -1 to day 28, N=9): no significant change
- enrichment in GO_MITOCHONDRION genes expression [4]: significant
- dose-normalised plasma Cmax and AUC0-36 h (plasma levels per mg dosed) (clinical [6]): higher plasma levels of urolithin A were observed per mg dosed
